Here are results for one compound from PMC9228535, “Antistaphylococcal Activities and ADME-Related Properties of Chlorinated Arylcarbamoylnaphthalenylcarbamates” (Pharmaceuticals, 2022).

Structures are written as SMILES. Converted amounts (≈) assume the structure as drawn. Like-named read-outs stand apart in the source and are kept apart here.

The subject of series [1] is MRSA 63718. The series can be described thus: MIC, microtitration broth method. To be noted: Staphylococcus aureus, MRSA, 24 h. Type of series: cell-based.
For series [2], the system named is MRSA SA 3202. The series can be described thus: MIC, microtitration broth method. The format is cell-based. To be noted: Staphylococcus aureus, 24 h.
The test system of series [3] is MRSA SA 630. Description: MIC, microtitration broth method. Type of series: cell-based. To be noted: Staphylococcus aureus, 24 h.
In series [4] the test system is Staphylococcus aureus ATCC 29213. The series can be described thus: MIC, microtitration broth method. Type of series: cell-based. To be noted: ATCC29213, 24 h.
In series [5] the test system is THP-1 cells. Description: In vitro cytotoxicity assay (WST-1). The format is cell-based. Conditions: Homo sapiens, THP-1, 24 h. For orientation: Tetrazolium dyes change colour on reduction, which living cells bring about.
A short description of series [6]: Stability of ethyl carbamate by HPLC (decomposition rate, half-life). The format is physicochemical. To be noted: buffer, read-out: half-life τ0,5 (converted). The protocol:
The minimum inhibitory concentrations (MICs) were evaluated by the microtitration broth method according to the CLSI [64, 65] with some modifications. The compounds were dissolved in DMSO (Sigma, St. Louis, MO, USA) to get a concentration […] and diluted in a microtitration plate in an appropriate medium, namely, Cation Adjusted Mueller–Hinton (CaMH, Oxoid, Basingstoke, UK) for staphylococci (S. aureus ATCC 29213, clinical isolates of MRSA 63718, SA 630, and SA 3202) and brain heart infusion (BHI, Oxoid) for E. faecalis ATCC 29212, to reach the final concentration of 256-0.125 µg/mL. The plate was inoculated by the tested microorganisms. The final concentration of bacterial cells was 10^5 for bacteria. Ampicillin (Sigma) was used as reference drugs. A drug-free control and a sterility control were included. The plates were incubated for 24 h at 37 °C for staphylococci and E. faecalis ATCC 29212 (stability evaluation of the carbamates, see Supplementary materials, Table S1). […] The experiments were repeated three times. […]
evaluate of ethyl carbamate stability. A chromatographic column XTerra® Phenyl 3.5 μm, 100 × 4.6 mm (Waters Corp., Milford, MA, USA) was used. The HPLC separation process was monitored by ChemStation for LC 3D systems (Agilent Technologies). Isocratic elution by a mixture of acetonitrile (HPLC grade, 60.0%) and phosphate buffer, pH 2.5 (40%) as a mobile phase was used. The total flow of the column was 1.0 mL/min, injection 20 μL, the time of analysis was 8 min, column temperature 40 °C, and sample temperature 10 °C. The detection wavelength of 254 nm was chosen. The retention time (tR) of carbamate 2 was 4.92 ± 0.05 min and of the pattern anilide 3.12 ± 0.05 min.
Table S1. Ethyl carbamate 2 decomposition rate and half-life values.

Series [7] has as its system S. aureus and MRSA isolates. The series can be described thus: Antistaphylococcal MIC, summary over strains. Conditions: Staphylococcus aureus, read-out: MICs. The format is cell-based, Staphylococcus aureus. As for the experimental part:
All the investigated compounds were screened for in vitro antibacterial activity against the reference and quality control strain Staphylococcus aureus ATCC 29213 and clinical isolates of methicillin-resistant S. aureus (MRSA) 63718, SA 630, and SA 3202 [14]. Activities are expressed as the minimum inhibitory concentrations (MICs), see Table 2. In addition to the MICs, the minimum bactericidal concentrations (MBCs) were also determined. […] MBC values that meet this requirement, i.e., the compound is bactericidal, are indicated in bold in Table 2.
In vitro antibacterial activity of the synthesized compounds was evaluated against representatives of multidrug-resistant bacteria, three clinical isolates of methicillin-resistant S. aureus: clinical isolate of animal origin, MRSA 63718 (Department of Infectious Diseases and Microbiology, Faculty of Veterinary Medicine, University of Veterinary Sciences Brno, Czech Republic), carrying the mecA gene; and MRSA SA 630 [46] and MRSA SA 3202 [46] (National Institute of Public Health, Prague, Czech Republic), both of human origin. Suspected colonies were confirmed by PCR; a 108bp fragment specific for S. aureus was detected. All isolates were tested for the presence of the mecA gene encoding methicillin resistance. […] Vancomycin-susceptible methicillin-susceptible S. aureus (VS-MSSA) ATCC 29213, obtained from the American Type Culture Collection, was used as the reference and quality control strain. Enterococcus faecalis ATCC 29212 was obtained from the American Type Culture Collection and used as the reference and quality control strain.
The minimum inhibitory concentrations (MICs) were evaluated by the microtitration broth method according to the CLSI [64, 65] with some modifications. […]

In the case of `CCNC(=O)Oc1c(C(=O)Nc2cc(Cl)c(Cl)cc2Cl)ccc2ccccc12` [Compound 2, 2-[N-(2,4,5-Trichlorophenyl)carbamoyl]naphthalen-1-yl ethyl carbamate], the MIC in series [1] was 0.144 µM (≈ 63 ng/mL); in series [2], 0.018 µM (≈ 7.88 ng/mL); in series [3], 0.018 µM (≈ 7.88 ng/mL); in series [4], 0.018 µM (≈ 7.88 ng/mL); in series [7], 0.018 to 0.064 µM (≈ 7.88 to 28 ng/mL). Further, inhibition in series [5] was half-maximal at 2850 ± 170 nM (IC50). The half-life – broadly, how long it takes for the measured level to halve – in series [6] (pH 6) was 50.1 days; in series [6] (pH 7), 23.2 days; in series [6] (pH 8) it was 9.12 days.
